# Test results as given in patent publication US11110082B2, “Tyrosine kinase inhibitors” (Rigel Pharmaceuticals, Inc., priority 2016, dated 2021).
# pEC50: −log10 of the molar value.
# Molecular target: T1, MerTK (Homo sapiens, UniProt Q12866)
# T1 construct: Seed HUVECs (10K cells/well) in EBM-2 complete media; host or cells: HUVEC (primary human umbilical vein endothelial cells)
# T1 sequence (Q12866 21-999): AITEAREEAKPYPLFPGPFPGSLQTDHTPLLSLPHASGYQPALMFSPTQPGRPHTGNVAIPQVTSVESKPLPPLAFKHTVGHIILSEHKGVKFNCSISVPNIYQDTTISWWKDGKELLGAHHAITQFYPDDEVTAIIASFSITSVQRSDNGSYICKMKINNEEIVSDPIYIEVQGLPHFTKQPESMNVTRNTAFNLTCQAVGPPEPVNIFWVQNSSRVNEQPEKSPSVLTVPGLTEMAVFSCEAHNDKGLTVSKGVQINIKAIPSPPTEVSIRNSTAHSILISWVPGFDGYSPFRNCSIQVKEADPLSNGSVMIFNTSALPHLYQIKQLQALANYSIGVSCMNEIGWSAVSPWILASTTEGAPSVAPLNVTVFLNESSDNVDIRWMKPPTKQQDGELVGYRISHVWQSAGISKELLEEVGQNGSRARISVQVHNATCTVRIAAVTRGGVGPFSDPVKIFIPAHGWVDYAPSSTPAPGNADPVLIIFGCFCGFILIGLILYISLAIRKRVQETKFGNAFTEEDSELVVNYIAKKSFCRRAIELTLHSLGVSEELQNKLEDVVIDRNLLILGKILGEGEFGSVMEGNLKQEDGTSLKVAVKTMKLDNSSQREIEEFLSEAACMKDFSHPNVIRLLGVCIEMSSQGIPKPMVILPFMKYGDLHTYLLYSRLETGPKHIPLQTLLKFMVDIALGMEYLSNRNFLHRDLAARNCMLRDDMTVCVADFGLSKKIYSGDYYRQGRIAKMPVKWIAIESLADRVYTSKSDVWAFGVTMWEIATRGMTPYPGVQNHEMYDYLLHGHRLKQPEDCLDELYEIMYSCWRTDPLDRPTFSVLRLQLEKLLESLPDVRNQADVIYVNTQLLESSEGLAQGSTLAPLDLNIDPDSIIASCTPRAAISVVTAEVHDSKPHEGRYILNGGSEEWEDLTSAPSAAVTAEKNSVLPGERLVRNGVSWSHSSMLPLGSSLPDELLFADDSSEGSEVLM
# Experiment: PAKT HTRF-HUVEC assay (pAkt Ser473 HTRF after anti-human MerTK-XL stimulation)
# Assay type: cell-based
# Details: HUVEC cells, 1 hour compound, stimulated with anti-human MerTK-XL 1 ug/mL for 10 minutes, read-out: inhibition of MerTK
# Method in brief: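 Akt Ser473 phosphorylation measured by HTRF in lysates of serum-starved HUVECs. Cells received compound for 1 h at 37° C before a 10-min challenge with antibody-cross-linked anti-MerTK (1 ug/mL final); EC50 derived by curve fit.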
row,Structure (SMILES),pEC50
1,O=c1c2cc(CN3CCNCC3)ccc2c2cnc(NCC3CC3)nc2n1[C@H]1CC[C@H](O)CC1 [Compound 171],6.51
2,O=c1c2cc(N3CCNCC3)ccc2c2cnc(NCC3CC3)nc2n1[C@H]1CC[C@H](O)CC1 [Compound 174],6.77
3,C[C@@H]1CN(Cc2ccc3c(c2)c(=O)n([C@H]2CC[C@H](O)CC2)c2nc(NCC4CC4)ncc32)CCN1C [Compound 175],7.44
4,CC(C)N1CCN(c2ccc3c(c2)c(=O)n([C@H]2CC[C@H](O)CC2)c2nc(NCC4CC4)ncc32)CC1 [Compound 176],7.01
5,O=c1c2cc(N3CCN(C4CC4)CC3)ccc2c2cnc(NCC3CC3)nc2n1[C@H]1CC[C@H](O)CC1 [Compound 177],6.32
6,O=c1c2cc(N3CCN(C4COC4)CC3)ccc2c2cnc(NCC3CC3)nc2n1[C@H]1CC[C@H](O)CC1 [Compound 178],6.42
7,O=c1c2cc(CN3CCN4CCC3CC4)ccc2c2cnc(NCC3CC3)nc2n1[C@H]1CC[C@H](O)CC1 [Compound 179],6.94
8,CN1CCN(Cc2ccc3c(c2)c(=O)n([C@H]2CC[C@H](OC(N)=O)CC2)c2nc(NCC4CC4)ncc32)CC1 [Compound 181],6.53
9,CC(C)(C)N1CCN(Cc2ccc3c(c2)c(=O)n([C@H]2CC[C@H](O)CC2)c2nc(NCC4CC4)ncc32)CC1 [Compound 182],8.12
10,CN1CCN(Cc2ccc3c(c2)c(=O)n([C@H]2CC[C@H](OC(N)=O)CC2)c2nc(N(CC4CC4)C(N)=O)ncc32)CC1 [Compound 183],4.86
11,"CN1CCN(Cc2ccc3c(c2)c(=O)n([C@H]2CC[C@H](NC(=O)OC(C)(C)C)CC2)c2nc(NCC4CC4)ncc32)CC1 [Compound 184, trans-tert-Butyl (4-(3-((cyclopropylmethyl)amino)-8-((4-methylpiperazin-1-yl)methyl)-6-oxopyrimido[4,5-c]isoquinolin-5(6H)-yl)cyclohexyl)carbamate]",5.29
12,"CN1CCN(Cc2ccc3c(c2)c(=O)n([C@H]2CC[C@H](N)CC2)c2nc(NCC4CC4)ncc32)CC1 [Compound 185, trans-5-(4-aminocyclohexyl)-3-((cyclopropylmethyl)amino)-8-((4-methylpiperazin-1-yl)methyl)pyrimido[4,5-c]isoquinolin-6(5H)-one]",7.54
13,"O=c1c2cc(CN3CCC4(CC3)COC4)ccc2c2cnc(NCC3CC3)nc2n1[C@H]1CC[C@H](O)CC1 [Compound 186, trans-8-((2-Oxa-7-azaspiro[3.5]nonan-7-yl)methyl)-3-((cyclopropylmethyl)amino)-5-(4-hydroxycyclohexyl)pyrimido[4,5-c]isoquinolin-6(5H)-one]",7.34
14,CN1CCN(Cc2ccc3c(c2)c(=O)n(C2CCN(C(=O)OC(C)(C)C)CC2)c2nc(NCC4CC4)ncc32)CC1 [Compound 188],4.95

# Now from value to compound:
row,pEC50,Structure (SMILES)
1,7.12,"CN1CCC(Nc2ccc3c(c2)c(=O)n([C@H]2CC[C@H](O)CC2)c2nc(NCC4CC4)ncc32)CC1 [Compound 189, trans-3-((Cyclopropylmethyl)amino)-5-(4-hydroxycyclohexyl)-8-((1-methylpiperidin-4-yl)amino)pyrimido[4,5-c]isoquinolin-6(5H)-one]"
2,7.14,"CN1CCN(Cc2ccc3c(c2)c(=O)n([C@H]2CC[C@H](NC(=O)CC#N)CC2)c2nc(NCC4CC4)ncc32)CC1 [Compound 190, trans-2-Cyano-N-(4-(3-((cyclopropylmethyl)amino)-8-((4-methylpiperazin-1-yl)methyl)-6-oxopyrimido[4,5-c]isoquinolin-5(6H)-yl)cyclohexyl)acetamide]"
3,6.06,CN1CCN(Cc2ccc3c(c2)c(=O)n(C2CCNCC2)c2nc(NCC4CC4)ncc32)CC1 [Compound 191]
4,5.39,CN1CCN(Cc2ccc3c(c2)c(=O)n(C2CCN(C(=O)CC#N)CC2)c2nc(NCC4CC4)ncc32)CC1 [Compound 192]
5,6.02,CC(C)Nc1ncc2c3ccc(Cl)cc3c(=O)n([C@H]3CC[C@H](O)CC3)c2n1 [Compound 193]
6,7.47,O=c1c2cc(CN3CCN(c4ccncc4)CC3)ccc2c2cnc(NCC3CC3)nc2n1[C@H]1CC[C@H](O)CC1 [Compound 194]
7,7.14,"CC(C)Nc1ncc2c3ccc(CN4CCN(C)CC4)cc3c(=O)n([C@H]3CC[C@H](O)CC3)c2n1 [Compound 195, trans-5-(4-Hydroxycyclohexyl)-3-(isopropylamino)-8-((4-methylpiperazin-1-yl)methyl)pyrimido[4,5-c]isoquinolin-6(5H)-one]"
8,6.62,"CN1CCN(Cc2ccc3c(c2)c(=O)n([C@H]2CC[C@H](O)CC2)c2nc(NC4CC4)ncc32)CC1 [Compound 196, trans-3-(Cyclopropylamino)-5-(4-hydroxycyclohexyl)-8-((4-methylpiperazin-1-yl)methyl)pyrimido[4,5-c]isoquinolin-6(5H)-one]"
9,7.01,"CCC(F)(F)CNc1ncc2c3ccc(CN4CCC5(CC4)COC5)cc3c(=O)n([C@H]3CC[C@H](O)CC3)c2n1 [Compound 197, trans-8-((2-Oxa-7-azaspiro[3.5]nonan-7-yl)methyl)-3-((2,2-difluorobutyl)amino)-5-(4-hydroxycyclohexyl)pyrimido[4,5-c]isoquinolin-6(5H)-one]"
10,7.88,"CCC(F)(F)CNc1ncc2c3ccc(CN4CCN(C(C)(C)C)CC4)cc3c(=O)n([C@H]3CC[C@H](O)CC3)c2n1 [Compound 198, trans-8-((4-(tert-Butyl)piperazin-1-yl)methyl)-3-((2,2-difluorobutyl)amino)-5-(4-hydroxycyclohexyl)pyrimido[4,5-c]isoquinolin-6(5H)-one]"
11,7.97,"CC(C)(C)N1CCN(Cc2ccc3c(c2)c(=O)n([C@H]2CC[C@H](O)CC2)c2nc(NC4CC(F)(F)C4)ncc32)CC1 [Compound 199, trans-8-((4-(tert-Butyl)piperazin-1-yl)methyl)-3-((3,3-difluorocyclobutyl)amino)-5-(4-hydroxycyclohexyl)pyrimido[4,5-c]isoquinolin-6(5H)-one]"
12,4.95,"O=C(O)C1CCN(Cc2ccc3c(c2)c(=O)n([C@H]2CC[C@H](O)CC2)c2nc(NCC4CC4)ncc32)CC1 [Compound 200, trans-1-((3-((Cyclopropylmethyl)amino)-5-(4-hydroxycyclohexyl)-6-oxo-5,6-dihydropyrimido[4,5-c]isoquinolin-8-yl)methyl)piperidine-4-carboxylic acid]"
13,7.14,"CC(C)(C)OC(=O)C1CCN(Cc2ccc3c(c2)c(=O)n([C@H]2CC[C@H](O)CC2)c2nc(NCC4CC4)ncc32)CC1 [Compound 201, trans-tert-Butyl 1-((3-((cyclopropylmethyl)amino)-5-(4-hydroxycyclohexyl)-6-oxo-5,6-dihydropyrimido[4,5-c]isoquinolin-8-yl)methyl)piperidine-4-carboxylate]"
14,7.33,"O=c1c2cc(CN3CCCCC3)ccc2c2cnc(NCC3CC3)nc2n1[C@H]1CC[C@H](O)CC1 [Compound 202, trans-3-((Cyclopropylmethyl)amino)-5-(4-hydroxycyclohexyl)-8-(piperidin-1-ylmethyl)pyrimido[4,5-c]isoquinolin-6(5H)-one]"
15,6.78,"NC(=O)C1CCN(Cc2ccc3c(c2)c(=O)n([C@H]2CC[C@H](O)CC2)c2nc(NCC4CC4)ncc32)CC1 [Compound 203, trans-1-((3-((Cyclopropylmethyl)amino)-5-(4-hydroxycyclohexyl)-6-oxo-5,6-dihydropyrimido[4,5-c]isoquinolin-8-yl)methyl)piperidine-4-carboxamide]"
16,7.24,"N#CC1CCN(Cc2ccc3c(c2)c(=O)n([C@H]2CC[C@H](O)CC2)c2nc(NCC4CC4)ncc32)CC1 [Compound 204, trans-1-((3-((Cyclopropylmethyl)amino)-5-(4-hydroxycyclohexyl)-6-oxo-5,6-dihydropyrimido[4,5-c]isoquinolin-8-yl)methyl)piperidine-4-carbonitrile]"
17,6.53,N[C@H]1CC[C@H](n2c(=O)c3cc(Cl)ccc3c3cnc(NCC4CC4)nc32)CC1 [Compound 205]
18,5.89,CC(C)(C)OC(=O)N1CCC(Cc2ccc3c(c2)c(=O)n([C@H]2CC[C@H](O)CC2)c2nc(NCC4CC4)ncc32)CC1 [Compound 206]
19,6.27,"O=c1c2cc(CC3CCNCC3)ccc2c2cnc(NCC3CC3)nc2n1[C@H]1CC[C@H](O)CC1 [Compound 207, trans-3-((Cyclopropylmethyl)amino)-5-(4-hydroxycyclohexyl)-8-(piperidin-4-ylmethyl)pyrimido[4,5-c]isoquinolin-6(5H)-one]"
